# Test results taken from ChEMBL document CHEMBL3739373, “1,2,3-Triazole derivatives as antitubercular agents: synthesis, biological evaluation and molecular docking study” (Medchemcomm, 2015).
# Assays:
# [1] = tested on: Mycobacterium tuberculosis; assay: Antitubercular activity against dormant phase Mycobacterium tuberculosis H37Ra ATCC 25177 incubated for 12 days by XTT reduction menadione assay; format: functional, organism-based; settings: 288 h
# [2] = Antioxidant activity assessed as DPPH radical scavenging activity after 30 mins by spectrophotometric analysis; format: physicochemical
# [3] = Cytotoxicity against human THP1 cells assessed as growth inhibition after 48 hrs by MTT assay; format: cell-based, THP-1
# [4] = (§1) Cytotoxicity against human A549 cells assessed as growth inhibition after 48 hrs by MTT assay; format: cell-based; settings: A549 cells
# [5] = tested on: A549; assay: as §1; format: cell-based; settings: a549, 48 h
# [6] = Cytotoxicity against human PANC1 cells assessed as growth inhibition after 48 hrs by MTT assay; format: cell-based, PANC-1
# [7] = Selectivity index, ratio of GI50 for human THP1 cells to MIC for dormant phase Mycobacterium tuberculosis H37Ra ATCC 25177; format: toxicity, cell-based, THP-1; settings: read-out: Selectivity Index
# [8] = Selectivity index, ratio of GI50 for human A549 cells to MIC for dormant phase Mycobacterium tuberculosis H37Ra ATCC 25177; format: toxicity, cell-based; settings: read-out: Selectivity Index
# [9] = Selectivity index, ratio of GI50 for human PANC1 cells to MIC for dormant phase Mycobacterium tuberculosis H37Ra ATCC 25177; format: toxicity, cell-based, PANC-1; settings: read-out: Selectivity Index
smiles,measurement,setting,value
Clc1ccc(Cn2cc(COc3ccc(Cl)cc3)nn2)cc1,IC50,[1],0.7 µg/mL
same,MIC,[1],8.2 µg/mL
same,IC50,[2],26.1 µg/mL
same,GI50 at 48 h,[3]; THP1 cells,17.4 µg/mL
same,GI90,"[3]; thp-1, 48 h",89.7 µg/mL
same,GI50 at 48 h,[4],> 100 µg/mL
same,GI90,[5],> 100 µg/mL
same,GI50 at 48 h,[6]; PANC1 cells,> 100 µg/mL
same,GI90,"[6]; panc-1, 48 h",> 100 µg/mL
same,selectivity ratio,[7],2.1
same,selectivity ratio,[8],> 12.2
same,selectivity ratio,[9],> 12.2
